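How tested: cells in 96-well plates exposed to compound for 48 hours at five concentrations. GI50 is the concentration that inhibits growth by half.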 Calls of active or inactive are those of the source. No stated cut-off is given here; in the data, active = GI50 up to about 1.1 µM and inactive = higher.
What was measured:
Assay in all cases: growth of human tumour cells (NCI), 48 h
[1] = test system: EKVX
[2] = test system: IGROV-1
[3] = test system: K562
[4] = test system: MOLT-4
[5] = test system: NCI-H522
[6] = test system: OVCAR-5
[7] = test system: OVCAR-8
[8] = test system: RXF 393
[9] = test system: SK-MEL-28
[10] = test system: SK-MEL-2
[11] = test system: SK-MEL-5
[12] = test system: SNB-19
[13] = test system: SNB-75
[14] = test system: TK-10
[15] = test system: U-251
[16] = test system: UACC-257
[17] = test system: UO-31
[18] = test system: HL-60

Row | SMILES | GI50 [1] | GI50 [2] | GI50 [3] | GI50 [4] | GI50 [5] | GI50 [6] | GI50 [7] | GI50 [8] | GI50 [9] | GI50 [10] | GI50 [11] | GI50 [12] | GI50 [13] | GI50 [14] | GI50 [15] | GI50 [16] | GI50 [17] | GI50 [18]
1 | NCCOCCOCC(=O)O | > 100 µM (inactive) | > 100 µM (inactive) | > 100 µM (inactive) | > 100 µM (inactive) | > 100 µM (inactive) | > 100 µM (inactive) | > 100 µM (inactive) | > 100 µM (inactive) | > 100 µM (inactive) | > 100 µM (inactive) | > 100 µM (inactive) | > 100 µM (inactive) | > 100 µM (inactive) | > 100 µM (inactive) | > 100 µM (inactive) | > 100 µM (inactive) | > 100 µM (inactive) | –
2 | C=C1C2C[C@@H]3OC4CC5O[C@]6(CC5OC4C(C)C3OC(=O)CC3CC[C@@H]4OC5C7OC8C[C@](CCC9CC(=C)[C@H](CCC(C[C@H]1C)O2)O9)(OC7C4O3)O[C@@H]85)C[C@@H]1O[C@@]2(CC(C)[C@@H]3OC(CC(=O)CCO)C(O)C[C@@H]3O2)CC(C)[C@@H]1O6 (stereo partly specified) | – | < 0.001 µM (active) | < 0.001 µM (active) | < 0.001 µM (active) | < 0.001 µM (active) | < 0.001 µM (active) | < 0.001 µM (active) | – | – | < 0.001 µM (active) | < 0.001 µM (active) | < 0.001 µM (active) | – | – | < 0.001 µM (active) | < 0.001 µM (active) | < 0.001 µM (active) | –
3 | O=C(CO)CC(=O)C(=O)Nc1ccccc1 | > 100 µM (inactive) | > 100 µM (inactive) | > 100 µM (inactive) | > 100 µM (inactive) | – | > 100 µM (inactive) | > 100 µM (inactive) | > 100 µM (inactive) | > 100 µM (inactive) | > 100 µM (inactive) | > 100 µM (inactive) | > 100 µM (inactive) | – | > 100 µM (inactive) | > 100 µM (inactive) | > 100 µM (inactive) | > 100 µM (inactive) | > 100 µM (inactive)
4 | CN1/C(=N\c2ccccc2)S/C1=N/c1ccccc1 | 60.1 µM (inactive) | > 100 µM (inactive) | 56.5 µM (inactive) | 69.3 µM (inactive) | 14.4 µM (inactive) | > 100 µM (inactive) | > 100 µM (inactive) | – | > 100 µM (inactive) | 27.2 µM (inactive) | 28.9 µM (inactive) | > 100 µM (inactive) | 6.62 µM (inactive) | > 100 µM (inactive) | > 100 µM (inactive) | > 100 µM (inactive) | > 100 µM (inactive) | 27.2 µM (inactive)
5 | CCCCCCCCCC1CC(=O)Oc2cccc(O)c21 (stereo unspecified) | 40.7 µM (inactive) | 20.9 µM (inactive) | 24 µM (inactive) | 26.7 µM (inactive) | 20.9 µM (inactive) | 28.3 µM (inactive) | 31.8 µM (inactive) | 23.8 µM (inactive) | 29.6 µM (inactive) | 20.6 µM (inactive) | 15.2 µM (inactive) | 3.7 µM (inactive) | 40 µM (inactive) | 36.2 µM (inactive) | 2.72 µM (inactive) | 41.3 µM (inactive) | 19.5 µM (inactive) | 27.9 µM (inactive)
6 | O=C(CCC(=O)Nc1ccc(Cl)c(Cl)c1)CC(=O)c1ccc(F)cc1 | > 100 µM (inactive) | > 100 µM (inactive) | > 100 µM (inactive) | > 100 µM (inactive) | – | > 100 µM (inactive) | > 100 µM (inactive) | > 100 µM (inactive) | > 100 µM (inactive) | – | > 100 µM (inactive) | > 100 µM (inactive) | – | – | > 100 µM (inactive) | > 100 µM (inactive) | > 100 µM (inactive) | > 100 µM (inactive)
7 | O=C1CCC(=O)N1Cc1ccccc1/N=[N+](\[O-])c1ccccc1CN1C(=O)CCC1=O | > 100 µM (inactive) | > 100 µM (inactive) | > 100 µM (inactive) | > 100 µM (inactive) | > 100 µM (inactive) | > 100 µM (inactive) | > 100 µM (inactive) | > 100 µM (inactive) | > 100 µM (inactive) | > 100 µM (inactive) | > 100 µM (inactive) | > 100 µM (inactive) | 10.2 µM (inactive) | > 100 µM (inactive) | > 100 µM (inactive) | – | > 100 µM (inactive) | > 100 µM (inactive)
8 | O=C1C2Cc3ccccc3CN2C(=O)N1CCN1CCCC1 (stereo unspecified) | – | > 100 µM (inactive) | > 100 µM (inactive) | > 100 µM (inactive) | > 100 µM (inactive) | > 100 µM (inactive) | > 100 µM (inactive) | – | > 100 µM (inactive) | > 100 µM (inactive) | > 100 µM (inactive) | > 100 µM (inactive) | – | > 100 µM (inactive) | > 100 µM (inactive) | – | > 100 µM (inactive) | > 100 µM (inactive)
9 | O=[N+]([O-])c1cc(Cl)ccc1S(=O)(=O)c1ccc(Cl)cc1[N+](=O)[O-] | – | 15.9 µM (inactive) | 28.2 µM (inactive) | 25 µM (inactive) | 16.1 µM (inactive) | 19.5 µM (inactive) | 16 µM (inactive) | 15.1 µM (inactive) | 18.1 µM (inactive) | 18 µM (inactive) | 14.6 µM (inactive) | 17.4 µM (inactive) | 15.7 µM (inactive) | 17.6 µM (inactive) | 19.8 µM (inactive) | 13.5 µM (inactive) | 17.1 µM (inactive) | 19.9 µM (inactive)
10 | CSc1nc(C)cc(=O)n1C1OC(COC(C)=O)C(OC(C)=O)C(OC(C)=O)C1OC(C)=O (stereo unspecified) | > 100 µM (inactive) | > 100 µM (inactive) | > 100 µM (inactive) | > 100 µM (inactive) | > 100 µM (inactive) | > 100 µM (inactive) | > 100 µM (inactive) | – | > 100 µM (inactive) | 53.3 µM (inactive) | > 100 µM (inactive) | > 100 µM (inactive) | 61.5 µM (inactive) | > 100 µM (inactive) | > 100 µM (inactive) | > 100 µM (inactive) | > 100 µM (inactive) | > 100 µM (inactive)
11 | COc1cc(/C=C/C(=N\NC(=O)c2ccccc2)c2sc(Nc3ccc(Cl)c(Cl)c3)nc2C)ccc1O | 29.6 µM (inactive) | 35.6 µM (inactive) | 25.2 µM (inactive) | 20.7 µM (inactive) | 17 µM (inactive) | 25.6 µM (inactive) | 33.3 µM (inactive) | 39.7 µM (inactive) | 40.6 µM (inactive) | 26.2 µM (inactive) | – | 31.6 µM (inactive) | 33.3 µM (inactive) | 37.5 µM (inactive) | 31.9 µM (inactive) | 29.6 µM (inactive) | 28.8 µM (inactive) | 16.1 µM (inactive)
12 | Cc1nnc(N/N=C(/C(=O)C(C#N)c2ccc(Cl)cc2)C(C#N)c2ccc(Cl)cc2)n1N (stereo unspecified) | > 10 µM (inactive) | – | 17.5 µM (inactive) | 31.7 µM (inactive) | 16.6 µM (inactive) | 18.5 µM (inactive) | 20 µM (inactive) | 17.7 µM (inactive) | 18.7 µM (inactive) | 18.2 µM (inactive) | 16 µM (inactive) | 14.6 µM (inactive) | 16.4 µM (inactive) | 20 µM (inactive) | – | 17.4 µM (inactive) | 17.7 µM (inactive) | 22.5 µM (inactive)
13 | COc1ccc(C[P+]2(c3ccccc3)CCCCC2)cc1.O=[N+]([O-])c1ccc(C[P+]2(c3ccccc3)CCCCC2)cc1.[O-][Cl+3]([O-])([O-])[O-].[O-][Cl+3]([O-])([O-])[O-] | > 100 µM (inactive) | 47.6 µM (inactive) | 56.1 µM (inactive) | 63.8 µM (inactive) | – | > 100 µM (inactive) | > 100 µM (inactive) | 95.9 µM (inactive) | 42.2 µM (inactive) | > 100 µM (inactive) | 23.7 µM (inactive) | 89.7 µM (inactive) | > 100 µM (inactive) | > 100 µM (inactive) | > 100 µM (inactive) | 29.6 µM (inactive) | > 100 µM (inactive) | 20.6 µM (inactive)
14 | CCCCCCCCCCCCCCCC(=O)OCC1OC(n2cc(F)c(=O)[nH]c2=O)C(NC(=O)OCc2ccccc2)C(O)C1O (stereo unspecified) | 22 µM (inactive) | 20.9 µM (inactive) | 14.5 µM (inactive) | 18.2 µM (inactive) | – | 19.1 µM (inactive) | 17.7 µM (inactive) | – | – | 16 µM (inactive) | 18.2 µM (inactive) | 16.8 µM (inactive) | 19.8 µM (inactive) | 19.6 µM (inactive) | 15.9 µM (inactive) | – | 19.5 µM (inactive) | 20.2 µM (inactive)
15 | CC1(C)NC(=O)N(CCCCCCN2C(=O)NC(C)(C)C2=O)C1=O | > 100 µM (inactive) | > 100 µM (inactive) | > 100 µM (inactive) | > 100 µM (inactive) | > 100 µM (inactive) | > 100 µM (inactive) | > 100 µM (inactive) | > 100 µM (inactive) | > 100 µM (inactive) | > 100 µM (inactive) | – | 97.9 µM (inactive) | > 100 µM (inactive) | > 100 µM (inactive) | > 100 µM (inactive) | > 100 µM (inactive) | > 100 µM (inactive) | –
16 | COc1ccc(/C=C/CO)cc1OC | > 100 µM (inactive) | > 100 µM (inactive) | > 100 µM (inactive) | > 100 µM (inactive) | – | > 100 µM (inactive) | > 100 µM (inactive) | > 100 µM (inactive) | > 100 µM (inactive) | > 100 µM (inactive) | > 100 µM (inactive) | > 100 µM (inactive) | > 100 µM (inactive) | > 100 µM (inactive) | > 100 µM (inactive) | > 100 µM (inactive) | > 100 µM (inactive) | –
17 | Clc1ccc2c(c1)C1C(CO2)C(c2ccccc2)=NN1c1ccccc1 (stereo unspecified) | 11.8 µM (inactive) | 22.9 µM (inactive) | 26.2 µM (inactive) | 22 µM (inactive) | – | > 100 µM (inactive) | 28.6 µM (inactive) | 24.2 µM (inactive) | 54.1 µM (inactive) | 26.9 µM (inactive) | – | 34.5 µM (inactive) | 20.1 µM (inactive) | 82.8 µM (inactive) | 34.8 µM (inactive) | 49.7 µM (inactive) | 15 µM (inactive) | 17.3 µM (inactive)

Reference: ChEMBL document CHEMBL1201862, “PubChem BioAssay data set” (2004)
